In ChEMBL document CHEMBL1201862, “PubChem BioAssay data set” (2004):
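Interpolation was linear, between the two tested concentrations surrounding the appropriate level; five concentrations were tested over 48 hours in 96-well plates. GI50 marks 50% less growth.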 Activity calls are given as the source filed them. Rule as the data show it: active = GI50 up to about 1.1 µM and inactive = higher.

Key:
Assay in all cases: NCI-60 cell line screen, 48 h
[1] = system: 786-0
[2] = system: A498
[3] = system: ACHN
[4] = system: BT-549
[5] = system: CAKI-1
[6] = system: COLO 205
[7] = system: DU-145
[8] = system: HCC 2998
[9] = system: Hs-578T
[10] = system: IGROV-1
[11] = system: K562
[12] = system: MCF7
[13] = system: NCI-H522
[14] = system: SK-MEL-2
[15] = system: SNB-19
[16] = system: SW-620
[17] = system: TK-10
[18] = system: UACC-257
[19] = system: UACC-62

Measured: GI50

CC(C)(C)c1ccc(NS(=O)(=O)c2ccc(N)cc2)cc1
inactive: [1] 23 µM | [2] 20.1 µM | [3] 29.4 µM | [4] 23.4 µM | [5] 38.3 µM | [6] 16.1 µM | [7] 30.5 µM | [8] 18.8 µM | [9] 27.4 µM | [10] 18.8 µM | [11] 17.8 µM | [12] 18.4 µM | [13] 17 µM | [14] 19.5 µM | [15] 35.7 µM | [16] 26.9 µM | [17] 59 µM | [18] 38.4 µM | [19] 15.7 µM

O=C(Nn1cc(F)c(=O)[nH]c1=O)C12CC3CC(CC(C3)C1)C2
inactive: [1] 10.7 µM | [2] 7.24 µM | [3] 10.7 µM | [4] 17.5 µM | [5] 4.6 µM | [6] 9.75 µM | [7] 8.3 µM | [9] 25.4 µM | [10] 6.61 µM | [11] 14.6 µM | [12] 5.22 µM | [13] 16.6 µM | [14] 23.2 µM | [15] 28.6 µM | [16] 15.5 µM | [17] 18.1 µM | [18] 22 µM | [19] 7.59 µM
active: [8] 0.646 µM

CC(=O)OCCCOCn1c(Cc2ccccc2)c(C)c(=O)[nH]c1=O
inactive: [1] > 100 µM | [2] > 100 µM | [3] > 100 µM | [4] > 100 µM | [5] > 100 µM | [6] > 100 µM | [7] > 100 µM | [8] > 100 µM | [9] > 100 µM | [10] > 100 µM | [11] > 100 µM | [12] > 100 µM | [13] > 100 µM | [14] > 100 µM | [15] > 100 µM | [16] > 100 µM | [17] > 100 µM | [18] > 100 µM | [19] > 100 µM

Clc1ccc(/C(=C/c2ccccc2)Cn2ccnc2)cc1
inactive: [1] 30.5 µM | [2] 22.6 µM | [3] 16.6 µM | [4] 22.4 µM | [5] 19.3 µM | [6] 18.6 µM | [7] 33 µM | [8] 42.7 µM | [9] 44.5 µM | [10] 17.9 µM | [11] 5.42 µM | [12] 20.4 µM | [13] 11.9 µM | [14] 14.6 µM | [15] 12 µM | [16] 27.6 µM | [17] 56.1 µM | [18] 30.5 µM | [19] 28 µM

OCC1OC(n2cnc3cccnc32)CC1O (centres undefined)
inactive: [1] > 100 µM | [2] > 100 µM | [3] > 100 µM | [4] > 100 µM | [5] > 100 µM | [6] > 100 µM | [7] > 100 µM | [8] > 100 µM | [9] > 100 µM | [10] > 100 µM | [11] > 100 µM | [12] > 100 µM | [13] > 100 µM | [14] > 100 µM | [15] > 100 µM | [16] > 100 µM | [17] > 100 µM | [18] > 100 µM | [19] > 100 µM

Nc1ccc2c(=S)c3ccccc3[nH]c2c1
inactive: [1] 38.5 µM | [2] 61.7 µM | [3] 38.1 µM | [4] 48.4 µM | [5] 9.23 µM | [6] 24.5 µM | [7] > 72.1 µM | [8] 53.5 µM | [9] 55.6 µM | [10] 28 µM | [11] 16.1 µM | [12] 20.1 µM | [13] 46.8 µM | [14] 51.9 µM | [15] 41.6 µM | [16] 32.5 µM | [17] > 53.6 µM | [18] 44.5 µM | [19] 31.7 µM
